Measured values taken from patent publication US11279735B2, “Cyclic peptide antibiotics” (priority 2017, dated 2022).
In brackets after ≈: the same amount, converted by molar mass. *1 amine or outer side, *2 acyl side, *3 side chain or, on linkers, in order; H or OH if unused. Where a SMILES comes first, the peptide text is derived from it. [ ]: non-standard residue; d: D form. The star is where a group is joined. X12 = C[C@H](CO[C@H](CC12CC3CC(CC(C3)C1)C2)[C@@H](C)C(=O)[*:2])N[*:1]; X16 = CCCCCC[C@@H](O[C@@H](C)CN[*:1])[C@@H](C)C(=O)[*:2]; X5 = CCCC[C@@H](OC[C@@H](C)N[*:1])[C@@H](CCCC)C(=O)[*:2]; X2 = CCCCCC[C@@H](OC[C@@H](C)N[*:1])[C@@H](C)C(=O)[*:2]; aThr = C[C@H](O)[C@H](N)C(=O)O; NMeL = CN[C@@H](CC(C)C)C(=O)O; Chg = N[C@H](C(=O)O)C1CCCCC1; NMeNva = CCC[C@H](NC)C(=O)O; Dap = NC[C@H](N)C(=O)O; X10 = NCCCC*

Test system: Escherichia coli (E. coli) strain CFT073 ATCC 700928
Format: cell-based
Settings: ATCC 700928, 22 h
How it was run: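 MICs were read after 22 h at 35 °C, with bacteria added to a final OD600 of 0.0005. Compounds were serially diluted 2-fold over ten concentrations from a top of 64, 4, 0.5 or 0.13 μg/mL (protocols 1–4). Medium was cation-adjusted Mueller Hinton II broth plus 0.002% Tween-80, following CLSI M07-A8.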

SMILES | MIC [µM]
CCCCCC[C@H]1O[C@@H](C)CNC(=O)[C@H]([C@H](C)O)NC(=O)[C@H](CN)NC(=O)[C@H](C2CCCCC2)NC(=O)[C@H](CC(C)C)N(C)C(=O)[C@@H]1C [Example 71, (2S,6S,9S,12S,15S,18R,19R)-9-(Aminomethyl)-12-cyclohexyl-19-hexyl-6-((S)-1-hydroxyethyl)-15-isobutyl-2,16,18-trimethyl-1-oxa-4,7,10,13,16-pentaazacyclononadecane-5,8,11,14,17-pentaone] (cyclo([Chg][Dap][aThr][X16][NMeL])) | 12 (≈ 8.17 µg/mL)
CCCCCC[C@H]1OC(=O)CNC(=O)[C@H](CNC(=O)C2CNC2)NC(=O)[C@H](CN)NC(=O)[C@H](C2CCCCC2)NC(=O)[C@H](CC(C)C)N(C)C(=O)[C@@H]1C [Example 72, N-(((6S,9S,12S,15S,18R,19R)-9-(Aminomethyl)-12-cyclohexyl-19-hexyl-15-isobutyl-16,18-dimethyl-2,5,8,11,14,17-hexaoxo-1-oxa-4,7,10,13,16-pentaazacyclononadecan-6-yl)methyl)azetidine-3-carboxamide] | 12 (≈ 8.99 µg/mL)
CCCCCC[C@H]1OC[C@@H](C)NC(=O)[C@H](COCCCCN)NC(=O)[C@H](CN)NC(=O)[C@H](C2CCCCC2)NC(=O)[C@H](CC(C)C)N(C)C(=O)[C@@H]1C [Example 73, (3R,6S,9S,12S,15S,18R,19R)-6-((4-Aminobutoxy)methyl)-9-(aminomethyl)-12-cyclohexyl-19-hexyl-15-isobutyl-3,16,18-trimethyl-1-oxa-4,7,10,13,16-pentaazacyclononadecane-5,8,11,14,17-pentaone] (cyclo([Chg][Dap]S(X10)[X2][NMeL])) | 6.3 (≈ 4.65 µg/mL)
CC(C)C[C@H]1C(=O)N[C@@H](C2CCCCC2)C(=O)N[C@@H](CN)C(=O)N[C@@H]([C@H](C)O)C(=O)N[C@H](C)CO[C@H](CC23CC4CC(CC(C4)C2)C3)[C@@H](C)C(=O)N1C [Example 74, (3R,6S,9S,12S,15S,18R,19R)-19-(((1r,3R,5S)-Adamantan-1-yl)methyl)-9-(aminomethyl)-12-cyclohexyl-6-((S)-1-hydroxyethyl)-15-isobutyl-3,16,18-trimethyl-1-oxa-4,7,10,13,16-pentaazacyclononadecane-5,8,11,14,17-pentaone] (cyclo([Chg][Dap][aThr][X12][NMeL])) | 1.6 (≈ 1.19 µg/mL)
CC(C)C[C@H]1C(=O)N[C@@H](C2CCCCC2)C(=O)N[C@@H](CN)C(=O)N[C@@H](COCCCN)C(=O)NCC(=O)O[C@H](CCCCC(C)(C)C)[C@@H](C)C(=O)N1C [Example 75, (6S,9S,12S,15S,18R,19R)-9-(Aminomethyl)-6-((3-aminopropoxy)methyl)-12-cyclohexyl-19-(5,5-dimethylhexyl)-15-isobutyl-16,18-dimethyl-1-oxa-4,7,10,13,16-pentaazacyclononadecane-2,5,8,11,14,17-hexaone] | 3.1 (≈ 2.33 µg/mL)
CCCCCC[C@H]1OC[C@@H](C)NC(=O)[C@H](COc2ccc(CN)cc2)NC(=O)[C@H](CN)NC(=O)[C@H](C2CCCCC2)NC(=O)[C@H](CC(C)C)N(C)C(=O)[C@@H]1C [Example 76, (3R,6S,9S,12S,15S,18R,19R)-9-(Aminomethyl)-6-((4-(aminomethyl)phenoxy)methyl)-12-cyclohexyl-19-hexyl-15-isobutyl-3,16,18-trimethyl-1-oxa-4,7,10,13,16-pentaazacyclononadecane-5,8,11,14,17-pentaone] | 6.3 (≈ 4.86 µg/mL)
CCCC[C@H]1OC[C@@H](C)NC(=O)[C@H]([C@H](C)O)NC(=O)[C@H](CN)NC(=O)[C@H](C2CCCCC2)NC(=O)[C@H](CCC)N(C)C(=O)[C@@H]1CCCC [Example 77, (3R,6S,9S,12S,15S,18R,19R)-9-(Aminomethyl)-18,19-dibutyl-12-cyclohexyl-6-((S)-1-hydroxyethyl)-3,16-dimethyl-15-propyl-1-oxa-4,7,10,13,16-pentaazacyclononadecane-5,8,11,14,17-pentaone] (cyclo([Chg][Dap][aThr][X5][NMeNva])) | 4.4 (≈ 3 µg/mL)
